pIC50: −log10 of the molar value.
Assays:
[1] = system: PBMC collected from celiac patients; experiment: Bidimensional co-culture of Caco-2 cells and PBMC from celiac patients; type: cell-based, human
Procedure: To translate our findings into the relevant clinical setting, we determined whether CFTR potentiators would prevent the HLA-restricted immune response to gliadin by peripheral blood mononuclear cells (PBMC) collected from celiac patients. PBMC collected from 6 celiac patients and 4 healthy controls, were cultured in the lower compartment of a bidimensional co-culture model in which confluent Caco-2 cells were placed in the upper compartment. Then, Caco-2 cells were challenged with PT gliadin or with a combination of P31-43 and P57-68 (or P57-68 alone as a negative control), as described, and IFN-γ and IL-10 were quantified in the supernatants from the lower compartment.
Five ml of peripheral blood have been withdrawn from 8 untreated celiac patients (females and males, age range 8-25 years) and from 3 DQ2+ positive not CD affected controls (healthy first-grade relatives of celiac patients). The Ethics Committee of ISS approved the protocol (# CE/12/341), and patients or patients' parents signed the informed consent. Peripheral blood mononuclear cells were isolated using lympholite (Cederlane, UK) density gradient overlaid by heparin blood diluted 1:1 in PBS and centrifuged (20 min at 900 rpm). After being washed three times, PBMCs were resuspended in complete RPMI 1640 supplemented with 25 mM HEPES, 10% (v/v) heat-inactivated FBS, 100 U/ml penicillin, […] streptomycin, and 1% 2 mM 1-glutamine.
For transwell experiments using polarized Caco-2 cells, 3 weeks prior to the experiment, Caco-2 cells were seeded at a density of 80×10^3 cells×cm^2 on 0.4-μm, 1-cm^2 tissue culture inserts (Costar, Corning Incorporated). Transwell cultures (12-well) with confluent Caco-2 monolayers were used for co-culture with 1 ml PBMC (1.5×10^6 cells/ml) using PBMC medium and kept in an incubator at 37° C. and 5% CO2. Cells were allowed to settle for 1 h before the starting of the experiment. The permeability of the epithelial monolayer was assessed just before the experiments, measuring the transwell electrical resistance between the upper and lower compartments. […]

[2] = molecular target: NBD1 ATPase activity; experiment: NBD1 ATPase activity (malachite green kit); type: biochemical, human
Procedure: The measurement of NBD1 ATPase activity was performed with a malachite green based kit supplied by Sigma (cod. MAK113) in accordance with the manufacturer's instructions. The enzyme activity was measured at 620 nm at room temperature using a Multiskan 96 well plates reader.

Row | Compound | effect on IFN-γ production induced by the combination of peptides ([1]; celiac PBMC / Caco-2 co-culture) | IL-10 levels ([1]; celiac PBMC / Caco-2 co-culture, p<0.01) | effect on IL-15 accumulation in the lower compartment ([1]; p<0.001 vs peptide combination) | pIC50 [2]
1 | CC(C)(C)c1cc(C(C)(C)C)c(NC(=O)c2c[nH]c3ccccc3c2=O)cc1O [VX-770, N-(2,4-di-tert-butyl-5-hydroxyphenyl)-4-oxo-1,4-dihydroquinoline-3-carboxamide] | prevented the production of IFN-γ | restored IL-10 levels | prevented | –
2 | α-gliadin peptide LGQQQPFPPQQPY (SEQ ID 1), induces an enterocyte stress response (P31-43 sequence of alpha-gliadin) | – | – | – | ~4.30

Source: patent publication US20200206198A1, “CFTR CHANNEL ACTIVATOR FOR USE IN THE TREATMENT AND/OR PREVENTION OF GLUTEN SENSITIVITY CONDITIONS” (priority 2017, published 2020)
